Assay results as given in US11565003B2, “Mechanical opening of lipid bilayers by molecular nanomachines” (William Marsh Rice University, priority 2016, dated 2023).
Starred links: 1 amine or outer side, 2 acyl side, 3 side chain; linkers in the order of their positions; H or OH if unused. Positions of bridges follow the written chain, without caps; N, C: chain ends. Residues, ends and D or L forms follow the SMILES beside them. Chains are numbered I, II in the order given. X2 = C[C@@H]1Cc2ccc3ccccc3c2C1=C1c2cc(C#CCCn3cc(C(=O)[*:1])nn3)ccc2Sc2ccc(C#CCCn3cc(C(=O)[*:2])nn3)cc21

System: PC-3 cells
Assay: UV-activated nanomechanical necrosis, live cell confocal microscopy, PC-3
Format: cell-based, human
Details: for Time of Full Necrosis / Time of Initial Necrosis / % acceleration for full necrosis: 355 nm UV; for % acceleration for full necrosis: versus UV upon blank cells
Protocol: Following the synthetic bilipid vesicle experiments, nanomechanical action upon live cells was studied using confocal microscopy aided by a super-resolution technique called Phase Modulation Nanoscopy. Applicants used two experimental methods. In the first method (Method A), the molecular motors were loaded into the cell media and the imaging was initiated within 5 minutes to 24 hours. In the second method, (Method B), the molecular motors were loaded into the cell media, incubated for 30 minutes to 24 hours, and then washed three times with fresh molecular motor-free media before imaging.
Next, Applicants used the smaller nanomachine, 3. Initial control experiments (blank) were performed without nanomachines being present. UV-induced (355 nm) PC-3 necrosis is not initiated until approximately scan 20 (corresponding to 300 second continuous scanning UV exposure, 400 nJ/voxel total dwell time), characterized by massive disruption and rupture of the mitochondrial network and subsequent well-pronounced auto-fluorescent signal detectable in the nucleoli and nucleus wall (FIG. 7A). This is observable by the nucleoli membrane permeabilization and DNA damage at the onset of necrosis. The UV-induced necrosis reaches final stages at approximately scan 40 (corresponding to 600 seconds) that is consistent with characteristic extracellular membrane rupture and homogenous cytosolic auto-fluorescence, indicating loss of cellular organelle boundaries.
Microscopy cells were seeded in untreated iBibi 100 μL live cell channels and allowed to grow to 40% to 60% confluence, at 37° C. in 5% CO2. At this stage, the medium was replaced and cells were treated with the studied nanomachines and co-stains as appropriate, with 0.1% DMSO (as detailed above) present in the final imaging medium. For live cell imaging, DMEM/F12 media (10% FBS) lacking phenol red was used from this point onwards. Following incubation, where Method B was used, the channels were washed with live cell imaging media and imaged using a purpose build incubator housing the microscope maintaining 37° C., 5% CO2 and 10% humidity.
All live cell imaging experiments used either NIH 3T3 mouse skin fibroblast cells, PC-3 cells, a grade 3 human prostate adenocarcinoma, or Chinese hamster ovary cells (CHO). These are all well-studied cell lines with discrete morphological compositions. Each molecular machine was used as a stock solution at 0.10 to 1.00 μM with total dimethyl sulfoxide (DMSO) concentrations not exceeding 0.1% in the final cell media in order to avoid unwanted cell membrane permeabilization, the DMSO being required for solubility of the organic nanomachines. All loading experiments are carried out in a light-suppressed manner and the possibility of induced or accelerated uptake due to interaction between the molecular motors and the applied co-stain has been eliminated using a series of individual and reversed loading experiments.
All experimental imaging parameters (i.e., laser beam size, confocal pinhole size, laser intensity, line scanning speed, scanning area (field of view, FOV), and line averaging sequences) were kept constant throughout the experiments. The accuracy and errors associated with the establishment of accelerated necrosis are determined based on one dual channel imaging sequence, which takes 15 seconds in total. This imaging sequence has been carefully established using untreated live cells.
Steady state fluorescence images were recorded using a PhMoNa enhanced Leica SP5 II LSCM equipped with a HCX PL APO 63×/1.40 NA LambdaBlue Oil immersion objective. As an initial control experiment to establish the UV-induced cell toxicity threshold, while mitigating voxel exposure and ensuring sufficient laser dwell time, an imaging sequence has been established to monitor cell morphological and physiological changes as a function of time. All experiments used cell-line-determined culture medium containing 0.1% DMSO. […]

[1] = PC-3, Method B (washed three times)

For `CC(C)[C@H](NC(=O)[C@H](CCCNC(=N)N)NC(=O)[C@@H](NC(=O)[C@H](CC(N)=O)NC(=O)[C@H](CO)NC(=O)c1cn(CCC#Cc2ccc3c(c2)C(=C2c4c(ccc5ccccc45)C[C@H]2C)c2cc(C#CCCn4cc(C(=O)N[C@@H](CO)C(=O)N[C@@H](CC(N)=O)C(=O)N[C@H](C(=O)N[C@@H](CCCNC(=N)N)C(=O)N[C@H](C(=O)N[C@@H](C)C(=O)N5CCC[C@H]5C(=O)O)C(C)C)[C@@H](C)O)nn4)ccc2S3)nn1)[C@@H](C)O)C(=O)N[C@@H](C)C(=O)N1CCC[C@H]1C(=O)O` [Compound 9] (I: SNTRVAP-OH / II: SNTRVAP-OH; linker I:N-II:N via X2), the “selectivity for targeted PC-3 cells over non-targeted control cells (in words)” value (NIH 3T3 and CHO as non-targeted controls) was “selectively target the PC-3 cell line over CHO cells”, the “Time of Full Necrosis” value (PC-3, Method A (no washing)) was 360 s and the “Time of Initial Necrosis” value (PC-3, Method A (no washing)) was 150 s. The “% acceleration for full necrosis” value (PC-3, Method A) was 40%, the “Time of Full Necrosis” value [1] was 390 s and the “Time of Initial Necrosis” value [1] was 180 s. The “% acceleration for full necrosis” value (PC-3, Method B) was 35% and the “accelerated necrosis upon UV-activation after washing and further 24 hours in rotor free media” value (PC-3, incubated 30 minutes to 4 hours, washed three times, 24 hours rotor free media) was 25%.
